ChEMBL document CHEMBL4342519, “Triazolo-Peptidomimetics: Novel Radiolabeled Minigastrin Analogs for Improved Tumor Targeting” (J Med Chem, 2020)
pIC50: −log10 of the molar value. Active and inactive are the calls of the source. The calls are words filed in the database; no cut-off is given here. *1 amine or outer side, *2 acyl side, *3 side chain or, on linkers, in order; H or OH if unused. Where a SMILES comes first, the peptide text is derived from it. [ ]: non-standard residue; d: D form. The star is where a group is joined. X2 = CCCC[C@@H](C(=O)[*:2])n1cc([C@H](Cc2c[nH]c3ccccc23)N[*:1])nn1; X4 = C[C@H](N[*:1])c1cn([C@@H](Cc2ccc(O)cc2)C(=O)[*:2])nn1; DOTA = O=C(O)CN1CCN(CC(=O)O)CCN(CC(=O)*)CCN(CC(=O)O)CC1; X3 = O=C([C@H](Cc1c[nH]c2ccccc12)n1cc(CN[*:1])nn1)[*:2]; X5 = C[C@@H](C(=O)[*:2])n1cc([C@@H](CCC(=O)O)N[*:1])nn1; X1 = O=C(Cn1cc([C@H](Cc2ccc(O)cc2)N[*:1])nn1)[*:2]; Nle = CCCC[C@H](N)C(=O)O

Assays:
[1] = biological target: T1, Gastrin/cholecystokinin type B receptor (Homo sapiens, UniProt P32239); assay: Displacement of [177Lu] PP-F11N from CCK2R (unknown origin) transfected in A431 cells incubated for 1 hr at 4 degree C followed by compound washout with PBS buffer using Lu3+ labeled compound by Cobra-2 gamma counter method; format: cell-based
T1 sequence (P32239 whole entry): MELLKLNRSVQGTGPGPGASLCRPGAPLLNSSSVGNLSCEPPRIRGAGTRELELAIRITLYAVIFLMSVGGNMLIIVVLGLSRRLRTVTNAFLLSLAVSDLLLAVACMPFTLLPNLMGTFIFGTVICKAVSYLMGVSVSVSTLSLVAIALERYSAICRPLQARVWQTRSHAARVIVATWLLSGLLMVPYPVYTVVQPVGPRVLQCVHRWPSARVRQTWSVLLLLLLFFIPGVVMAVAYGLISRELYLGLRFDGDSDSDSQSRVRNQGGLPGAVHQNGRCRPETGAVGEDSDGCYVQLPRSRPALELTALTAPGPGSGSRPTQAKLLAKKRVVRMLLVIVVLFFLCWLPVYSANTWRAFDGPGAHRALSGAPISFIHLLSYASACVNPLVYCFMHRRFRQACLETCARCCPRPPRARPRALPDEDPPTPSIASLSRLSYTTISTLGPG

[2] = Stability of compound in human plasma at 7.5 MBq assessed as intact compound measured after 24 hrs using 177Lu labeled compound by gamma-HPLC analysis; format: ADME, cell-free; settings: for remaining at 24 h, 7.5 MBq: read-out: Stability; for Stability: 24 h
[3] = Half life in human plasma at 7.5 MBq measured up to 24 hrs at 37 degree C using 177Lu labeled compound by gamma-HPLC analysis; format: ADME, cell-free
[4] = Lipophilicity, log D of compound in PBS buffer at 0.25 MBq and pH 7.4 using 177Lu labeled compound by shake-flask method; format: physicochemical
[5] = Drug uptake in tumor of CD1 nu/nu mouse xenografted with human A431 cells transfected with CCK2R at 0.5 MBq after 4 hrs using 177Lu labeled compound by Cobra-2 gamma counter method relative to control; format: ADME, tissue-based, Neoplasm
[6] = biological target: T2, Gastrin/cholecystokinin type B receptor (Homo sapiens) (UniProt P32239); assay: Binding affinity to CCK2R (unknown origin) expressed in human A431 cells assessed as receptor-mediated drug internalization at 5 kBq incubated up to 240 mins using 177Lu labeled compound by gamma counting method relative to control; format: cell-based
T2 sequence (whole entry): T1 sequence (P32239 whole entry)

[7] = biological target: T2, Gastrin/cholecystokinin type B receptor (Homo sapiens); assay: Binding affinity to CCK2R (unknown origin) expressed in human A431 cells assessed as receptor-mediated drug internalization at 5 kBq incubated 4 hrs using 177Lu labeled compound by gamma counting method relative to control; format: cell-based
[8] = biological target: T2, Gastrin/cholecystokinin type B receptor (Homo sapiens); assay: Potency index, ratio of [Nle15]MG11 IC50 to test compound IC50 for displacement of [177Lu] PP-F11N from CCK2R (unknown origin) transfected in A431 cells incubated for 1 hr at 4 degree C followed by compound washout with PBS buffer using Lu3+ labeled compound by Cobra-2 gamma counter method; format: cell-based
[9] = Drug recovery in tumor of CD1 nu/nu mouse xenografted with human A431 cells transfected with CCK2R at 0.5 MBq after 24 hrs using 177Lu labeled compound by Cobra-2 gamma counter method relative to control; format: ADME, tissue-based, Neoplasm
[10] = Ratio of drug uptake in tumor to kidney in CD1 nu/nu mouse xenografted with human A431 cells transfected with CCK2R at 0.5 MBq after 4 hrs using 177Lu labeled compound by Cobra-2 gamma counter method; format: ADME, tissue-based
[11] = Drug uptake in tumor of CD1 nu/nu mouse xenografted with human A431 cells transfected with CCK2R at 0.5 MBq after 1 hr using 177Lu labeled compound by Cobra-2 gamma counter method; format: ADME, tissue-based, Neoplasm
[12] = Drug uptake in tumor of CD1 nu/nu mouse xenografted with human A431 cells transfected with CCK2R at 0.5 MBq after 24 hrs using 177Lu labeled compound by Cobra-2 gamma counter method relative to control; format: ADME, tissue-based, Neoplasm
[13] = Ratio of half life of compound to [Nle15]MG11 in human plasma at 7.5 MBq measured up to 24 hrs at 37 degree C using 177Lu labeled compound by gamma-HPLC analysis; format: ADME, cell-free
[14] = biological target: T2, Gastrin/cholecystokinin type B receptor (Homo sapiens); assay: Binding affinity to CCK2R (unknown origin) expressed in human A431 cells assessed as receptor-mediated drug internalization at 5 kBq incubated 2 to 4 hrs using 177Lu labeled compound by gamma counting method relative to control; format: cell-based
[15] = Drug uptake in tumor of CD1 nu/nu mouse xenografted with human A431 cells transfected with CCK2R at 0.5 MBq, iv after 4 hrs using 177Lu labeled compound by Cobra-2 gamma counter method relative to [Nle15]MG11; format: ADME, organism-based, Neoplasm; settings: in vivo

Row | SMILES | pIC50 [1] | remaining at 24 h, 7.5 MBq [2] [%] | half-life at 7.5 MBq [3] [h] | logD ([4]; PBS buffer, read-out: logD) | Drug uptake [5] | Drug uptake [6] [%] | Drug uptake [7] | Ratio IC50 [8] | Drug recovery [9] [%] | Ratio [10] | Drug uptake [11] | Drug uptake [12] | Ratio [13] | Stability [2] | fold change (FC) [14] | logD ([4]; buffer) | Ratio [15]
1 | CCCC[C@H](NC(=O)[C@H](Cc1c[nH]c2ccccc12)NC(=O)CNC(=O)[C@H](Cc1ccc(O)cc1)NC(=O)[C@H](C)NC(=O)[C@@H](CCC(=O)O)NC(=O)CN1CCN(CC(=O)O)CCN(CC(=O)O)CCN(CC(=O)O)CC1)c1cn([C@@H](CC(=O)O)C(=O)N[C@@H](Cc2ccccc2)C(N)=O)nn1 | < 4.30 | > 50 | 114 | -3.75 | Active | 0.2 | – | – | – | – | – | – | – | – | – | – | –
2 | CCCC[C@H](NC(=O)[C@H](Cc1c[nH]c2ccccc12)NC(=O)CNC(=O)C[C@H](Cc1ccc(O)cc1)NC(=O)[C@H](C)NC(=O)[C@@H](CCC(=O)O)NC(=O)CN1CCN(CC(=O)O)CCN(CC(=O)O)CCN(CC(=O)O)CC1)C(=O)N[C@@H](CC(=O)O)C(=O)N[C@@H](Cc1ccccc1)C(N)=O | 7.59 | – | 4.7 | -3.83 | – | 37.4 | – | – | – | – | – | – | – | – | – | – | –
3 | CCCC[C@H](NC(=O)[C@H](Cc1c[nH]c2ccccc12)NC(=O)CNC(=O)[C@H](Cc1ccc(O)cc1)NC(=O)[C@H](C)NC(=O)[C@@H](CCC(=O)O)NC(=O)CN1CCN(CC(=O)O)CCN(CC(=O)O)CCN(CC(=O)O)CC1)C(=O)N[C@@H](CC(=O)O)C(=O)N[C@@H](Cc1ccccc1)c1c[nH]nn1 | 6.70 | > 50 | 34.9 | -3.69 | – | 2.5 | – | – | – | – | – | – | – | – | – | – | –
4 | CCCC[C@H](NC(=O)[C@H](Cc1c[nH]c2ccccc12)NC(=O)CCNC(=O)[C@H](Cc1ccc(O)cc1)NC(=O)[C@H](C)NC(=O)[C@@H](CCC(=O)O)NC(=O)CN1CCN(CC(=O)O)CCN(CC(=O)O)CCN(CC(=O)O)CC1)C(=O)N[C@@H](CC(=O)O)C(=O)N[C@@H](Cc1ccccc1)C(N)=O | 7.73 | – | 8.5 | -3.73 | – | 44.5 | – | – | – | – | – | – | – | – | – | – | –
5 | CCCC[C@H](NC(=O)[C@H](Cc1c[nH]c2ccccc12)NC(=O)CNC(=O)[C@H](Cc1ccc(O)cc1)NC(=O)[C@H](C)NC(=O)[C@@H](CCC(=O)O)NC(=O)CN1CCN(CC(=O)O)CCN(CC(=O)O)CCN(CC(=O)O)CC1)C(=O)N[C@@H](CC(=O)O)c1cn([C@@H](Cc2ccccc2)C(N)=O)nn1 | < 4.30 | > 50 | 35.9 | -3.95 | – | 0.1 | – | – | – | – | – | – | – | – | – | – | –
6 | CCCC[C@H](NC(=O)[C@H](Cc1c[nH]c2ccccc12)NC(=O)CNC(=O)[C@H](Cc1ccc(O)cc1)NC(=O)[C@H](C)n1cc([C@@H](CCC(=O)O)NC(=O)CN2CCN(CC(=O)O)CCN(CC(=O)O)CCN(CC(=O)O)CC2)nn1)C(=O)N[C@@H](CC(=O)O)C(=O)N[C@@H](Cc1ccccc1)C(N)=O ({DOTA}-[X5]YGW[Nle]DF-NH2) | 8.10 | – | 7.7 | -3.98 | Active | 39.6 | Active | 2 | – | – | – | – | – | – | – | – | –
7 | CCCC[C@H](NC(=O)[C@H](Cc1c[nH]c2ccccc12)NC(=O)CNC(=O)[C@H](Cc1ccc(O)cc1)NC(=O)[C@H](C)NC(=O)[C@@H](CCC(=O)O)NC(=O)CN1CCN(CC(=O)O)CCN(CC(=O)O)CCN(CC(=O)O)CC1)C(=O)N[C@@H](CC(=O)O)C(=O)N[C@@H](Cc1ccccc1)C(N)=O ({DOTA}-[dE]AYGW[Nle]DF-NH2) | 7.81 | – | 3.9 | -3.86 | 1.48 % ID/g | 32.2 | 11.7% | – | 34 | 1.83 | Active | < 0.9 % ID/g | – | – | – | – | –
8 | CCCC[C@@H](C(=O)N[C@@H](CC(=O)O)C(=O)N[C@@H](Cc1ccccc1)C(N)=O)n1cc([C@H](Cc2c[nH]c3ccccc23)NC(=O)CNC(=O)[C@H](Cc2ccc(O)cc2)NC(=O)[C@H](C)NC(=O)[C@@H](CCC(=O)O)NC(=O)CN2CCN(CC(=O)O)CCN(CC(=O)O)CCN(CC(=O)O)CC2)nn1 ({DOTA}-[dE]AYG[X2]DF-NH2) | 7.60 | > 50 | 350 | -3.98 | Active | 33.1 | Active | – | – | – | – | – | 90 | – | – | – | –
9 | CCCC[C@H](NC(=O)[C@H](Cc1c[nH]c2ccccc12)n1cc(CNC(=O)[C@H](Cc2ccc(O)cc2)NC(=O)[C@H](C)NC(=O)[C@@H](CCC(=O)O)NC(=O)CN2CCN(CC(=O)O)CCN(CC(=O)O)CCN(CC(=O)O)CC2)nn1)C(=O)N[C@@H](CC(=O)O)C(=O)N[C@@H](Cc1ccccc1)C(N)=O ({DOTA}-[dE]AY[X3][Nle]DF-NH2) | 7.81 | – | 3.8 | -4 | Active | 41.7 | Active | – | – | – | – | – | – | Unstable | – | – | –
10 | CCCC[C@H](NC(=O)[C@H](Cc1c[nH]c2ccccc12)NC(=O)Cn1cc([C@H](Cc2ccc(O)cc2)NC(=O)[C@H](C)NC(=O)[C@@H](CCC(=O)O)NC(=O)CN2CCN(CC(=O)O)CCN(CC(=O)O)CCN(CC(=O)O)CC2)nn1)C(=O)N[C@@H](CC(=O)O)C(=O)N[C@@H](Cc1ccccc1)C(N)=O ({DOTA}-[dE]A[X1]W[Nle]DF-NH2) | 8.77 | – | 2.6 | – | 3.91 % ID/g | 54.3 | 31% | 10 | 75 | 5.81 | Active | Active | – | Unstable | 2 | -4.06 | 2.6
11 | CCCC[C@H](NC(=O)[C@H](Cc1c[nH]c2ccccc12)NC(=O)CNC(=O)[C@H](Cc1ccc(O)cc1)n1cc([C@H](C)NC(=O)[C@@H](CCC(=O)O)NC(=O)CN2CCN(CC(=O)O)CCN(CC(=O)O)CCN(CC(=O)O)CC2)nn1)C(=O)N[C@@H](CC(=O)O)C(=O)N[C@@H](Cc1ccccc1)C(N)=O ({DOTA}-[dE][X4]GW[Nle]DF-NH2) | 7.68 | > 50 | 51.4 | -3.9 | Active | 29.6 | Active | – | – | – | – | – | – | – | – | – | –
